Measured values as given in patent US20120060243A1, “Herbicide-Resistant AHAS-Mutants and Methods of Use” (priority 2008, published 2012).

What was measured:
Assay type in all cases: in vivo, Brassica napus
[1] = test system: BN-02 (wild type); experiment: Plant injury after herbicide spray, Table 3; settings: 3-4 leaf stage, 2 weeks after treatment, line BN-02
Protocol: (§1) B. napus plants containing the double mutant were also tested for plant injury due to imidazolinone herbicide application. B. napus plants for lines BN02 (wild type), BnCL131A1 (AHAS III A122T:S653N double mutant), BnCL120C7 (AHAS III A122T single mutant), BnCL97 (AHAS III S653N single mutant), PM1/PM2 (commercial two gene check), PM1 (AHAS I S653N single mutant) and PM2 (AHAS III W574L single mutant) were grown from seed until 3-4 leaf stage then either left unsprayed or sprayed with 35, 70 or 210 g ai/ha imazamox supplemented with 0.5% v/v Merge. Herbicide injury was evaluated 2 weeks after treatment (DAT) on 8-24 plants per line using a 0 to 9 scale where 0 is no injury and 9 is plant death. The results are presented as mean injury±one standard error of the mean in Table 3 below. The results presented cover two independent plantings and sprays for all lines except BnCL97. The table also presents values for ±one standard error of the mean.

[2] = test system: BnCL120C7 (AHAS III A122T single mutant); experiment: Plant injury after herbicide spray, Table 3; settings: 3-4 leaf stage, 2 weeks after treatment, line BnCL120C7
Protocol: as §1

[3] = test system: BnCL131A1 (AHAS III A122T:S653N double mutant); experiment: Plant injury after herbicide spray, Table 3; settings: 3-4 leaf stage, 2 weeks after treatment, line BnCL131A1
Protocol: as §1

[4] = test system: BnCL97 (AHAS III S653N single mutant); experiment: Plant injury after herbicide spray, Table 3; settings: 3-4 leaf stage, 2 weeks after treatment, line BnCL97
Protocol: as §1

[5] = test system: PM1 (AHAS I S653N single mutant); experiment: Plant injury after herbicide spray, Table 3; settings: 3-4 leaf stage, 2 weeks after treatment, line PM1
Protocol: as §1

[6] = test system: PM1/PM2 (commercial two gene check); experiment: Plant injury after herbicide spray, Table 3; settings: 3-4 leaf stage, 2 weeks after treatment, line PM1/PM2
Protocol: as §1

[7] = test system: PM2 (AHAS III W574L single mutant); experiment: Plant injury after herbicide spray, Table 3; settings: 3-4 leaf stage, 2 weeks after treatment, line PM2
Protocol: as §1

[8] = test system: Bn WT 1; experiment: Field trial crop phytotoxicity, Simcoe; settings: 18 Days After Treatment, line Bn WT 1; for Mean Percent Crop Phytotoxicity (% Crop Injury): field, 2-4 leaf stage
From the text: (§2) Hand-crossed hybrids were produced in the greenhouse between two IMI-tolerant spring Brassica napus parental lines: “BnCL131A1” (homozygous for the A genome IMI-tolerant mutation AHASL1A-A122(At)T-S653(At)N) and “PM1PM2” (homozygous for the A genome AHAS-inhibitor tolerant mutation AHASL1A-W574(At)L (PM2) plus the C genome AHAS-inhibitor tolerant mutation AHASL1C-S653(At)N(PM1)). The resulting heterozygous hand-crossed hybrid line, “PM1PM2/BnCL131A 1” (heterozygous for the stacked mutations: AHASL1A-A122(At)T-S653(At)N, AHASL1A-W574(At)L (PM2), AHASL1C-S653(At)N(PM1)) was field tested together with lines each containing only one AHAS-inhibitor tolerant mutation (homozygous or heterozygous) and several spring Brassica napus checks.
(§3) The three repetition trial was conducted in Simcoe, N. Dak., and used a randomized split block design. The trial was designed to measure the percent phytotoxicity (% crop injury) of the different entries under 5 different imidazolinone herbicide treatment rates. Plants were sprayed at the 2-4 leaf stage at a volume of 100 liters/ha. The imidazolinone herbicide rates used were as follows (Imazamox=BEYOND™ 120 g/I LC (BAS 72001H); NIS=INDUCE™ 90 (90% non-ionic surfactant; Helena Chemical Co., Collierville, Tenn.):
(§4) Crop Injury Ratings were determined in the field by assessing each plot in the trial for the level of phytotoxicity (percent crop injury) on a scale from 0-100% at 18 days after treatment. Mean values for each entry across the three replications along with their statistical significance (ANOVA) are presented in Table 6 (Ho=homozygous; He=heterozygous). Each value presented in Table 6 is the mean of three replications.
(§5) The percent phytotoxicity (% crop injury) ratings were transposed into Herbicide Tolerance ratings by subtracting the percent crop injury rating (Table 6) for each line from 100% to obtain the percent herbicide tolerance (Table 7) (Ho=homozygous; He=heterozygous).

[9] = test system: Bn WT 2; experiment: Field trial crop phytotoxicity, Simcoe; settings: 18 Days After Treatment, line Bn WT 2; for Mean Percent Crop Phytotoxicity (% Crop Injury): field, 2-4 leaf stage
From the text: as §2, §3, §4, §5

[10] = test system: PM1 (AHASL1C-PM1), S653N (Ho); experiment: Field trial crop phytotoxicity, Simcoe; settings: 18 Days After Treatment, line PM1 (AHASL1C-PM1); for Mean Percent Crop Phytotoxicity (% Crop Injury): field, 2-4 leaf stage
From the text: as §2, §3, §4, §5

[11] = mean over 0, 35, 70, 140, 210 g ai/ha (N 15)

For `COCc1cnc(C2=NC(C)(C(C)C)C(=O)N2)c(C(=O)O)c1` (stereo not drawn) [imazamox], the “Herbicide injury, mean ± one standard error of the mean, 0 to 9 scale (0 no injury, 9 plant death)” value ([1]; 35 g ai/ha + 0.5% v/v Merge) was 9.00 ± 0.00, the “Herbicide injury, mean ± one standard error of the mean, 0 to 9 scale (0 no injury, 9 plant death)” value ([1]; 70 g ai/ha + 0.5% v/v Merge) was 9.00 ± 0.00 and the “Herbicide injury, mean ± one standard error of the mean, 0 to 9 scale (0 no injury, 9 plant death)” value ([1]; 210 g ai/ha + 0.5% v/v Merge) was 9.00 ± 0.00. For the same compound, the “Herbicide injury, mean ± one standard error of the mean, 0 to 9 scale (0 no injury, 9 plant death)” value ([2]; 35 g ai/ha + 0.5% v/v Merge) was 4.19 ± 0.39, the “Herbicide injury, mean ± one standard error of the mean, 0 to 9 scale (0 no injury, 9 plant death)” value ([2]; 70 g ai/ha + 0.5% v/v Merge) was 5.43 ± 0.24 and the “Herbicide injury, mean ± one standard error of the mean, 0 to 9 scale (0 no injury, 9 plant death)” value ([2]; 210 g ai/ha + 0.5% v/v Merge) was 6.65 ± 0.30. For the same compound, the “Herbicide injury, mean ± one standard error of the mean, 0 to 9 scale (0 no injury, 9 plant death)” value ([3]; 35 g ai/ha + 0.5% v/v Merge) was 0.76 ± 0.33, the “Herbicide injury, mean ± one standard error of the mean, 0 to 9 scale (0 no injury, 9 plant death)” value ([3]; 70 g ai/ha + 0.5% v/v Merge) was 2.53 ± 0.24 and the “Herbicide injury, mean ± one standard error of the mean, 0 to 9 scale (0 no injury, 9 plant death)” value ([3]; 210 g ai/ha + 0.5% v/v Merge) was 3.22 ± 0.33. The “Herbicide injury, mean ± one standard error of the mean, 0 to 9 scale (0 no injury, 9 plant death)” value ([4]; 35 g ai/ha + 0.5% v/v Merge) was 4.08 ± 0.15, the “Herbicide injury, mean ± one standard error of the mean, 0 to 9 scale (0 no injury, 9 plant death)” value ([4]; 70 g ai/ha + 0.5% v/v Merge) was 8.58 ± 0.15 and the “Herbicide injury, mean ± one standard error of the mean, 0 to 9 scale (0 no injury, 9 plant death)” value ([4]; 210 g ai/ha + 0.5% v/v Merge) was 8.00 ± 0.23. For the same compound, the “Herbicide injury, mean ± one standard error of the mean, 0 to 9 scale (0 no injury, 9 plant death)” value ([5]; 35 g ai/ha + 0.5% v/v Merge) was 7.22 ± 0.18, the “Herbicide injury, mean ± one standard error of the mean, 0 to 9 scale (0 no injury, 9 plant death)” value ([5]; 70 g ai/ha + 0.5% v/v Merge) was 8.61 ± 0.12 and the “Herbicide injury, mean ± one standard error of the mean, 0 to 9 scale (0 no injury, 9 plant death)” value ([5]; 210 g ai/ha + 0.5% v/v Merge) was 9.00 ± 0.00. For the same compound, the “Herbicide injury, mean ± one standard error of the mean, 0 to 9 scale (0 no injury, 9 plant death)” value ([6]; 35 g ai/ha + 0.5% v/v Merge) was 1.21 ± 0.33, the “Herbicide injury, mean ± one standard error of the mean, 0 to 9 scale (0 no injury, 9 plant death)” value ([6]; 70 g ai/ha + 0.5% v/v Merge) was 4.13 ± 0.36 and the “Herbicide injury, mean ± one standard error of the mean, 0 to 9 scale (0 no injury, 9 plant death)” value ([6]; 210 g ai/ha + 0.5% v/v Merge) was 4.93 ± 0.53. The “Herbicide injury, mean ± one standard error of the mean, 0 to 9 scale (0 no injury, 9 plant death)” value ([7]; 35 g ai/ha + 0.5% v/v Merge) was 1.81 ± 0.25, the “Herbicide injury, mean ± one standard error of the mean, 0 to 9 scale (0 no injury, 9 plant death)” value ([7]; 70 g ai/ha + 0.5% v/v Merge) was 4.14 ± 0.23 and the “Herbicide injury, mean ± one standard error of the mean, 0 to 9 scale (0 no injury, 9 plant death)” value ([7]; 210 g ai/ha + 0.5% v/v Merge) was 6.17 ± 0.22. For the same compound, the “Mean Percent Crop Phytotoxicity (% Crop Injury)” value ([8]; 35 g ai/ha + 0.25% (v/v) NIS) was 85%, the “Mean Percent Herbicide Tolerance (100% minus percent crop injury)” value ([8]; 35 g ai/ha) was 15.0% and the “Mean Percent Crop Phytotoxicity (% Crop Injury)” value ([8]; 70 g ai/ha + 0.25% (v/v) NIS) was 96.67%. The “Mean Percent Herbicide Tolerance (100% minus percent crop injury)” value ([8]; 70 g ai/ha) was 3.3%, the “Mean Percent Crop Phytotoxicity (% Crop Injury)” value ([8]; 140 g ai/ha + 0.25% (v/v) NIS) was 100% and the “Mean Percent Herbicide Tolerance (100% minus percent crop injury)” value ([8]; 140 g ai/ha) was 0.0%. The “Mean Percent Crop Phytotoxicity (% Crop Injury)” value ([8]; 210 g ai/ha + 0.25% (v/v) NIS) was 98.33%, the “Mean Percent Herbicide Tolerance (100% minus percent crop injury)” value ([8]; 210 g ai/ha) was 1.7% and the “Mean Percent Crop Phytotoxicity (% Crop Injury), Mean over rates” value [8, 11] was 76%. The “Mean Percent Crop Phytotoxicity (% Crop Injury)” value ([9]; 35 g ai/ha + 0.25% (v/v) NIS) was 95%, the “Mean Percent Herbicide Tolerance (100% minus percent crop injury)” value ([9]; 35 g ai/ha) was 5.0% and the “Mean Percent Crop Phytotoxicity (% Crop Injury)” value ([9]; 70 g ai/ha + 0.25% (v/v) NIS) was 100%. The “Mean Percent Herbicide Tolerance (100% minus percent crop injury)” value ([9]; 70 g ai/ha) was 0.0%, the “Mean Percent Crop Phytotoxicity (% Crop Injury)” value ([9]; 140 g ai/ha + 0.25% (v/v) NIS) was 100% and the “Mean Percent Herbicide Tolerance (100% minus percent crop injury)” value ([9]; 140 g ai/ha) was 0.0%. The “Mean Percent Crop Phytotoxicity (% Crop Injury)” value ([9]; 210 g ai/ha + 0.25% (v/v) NIS) was 100%, the “Mean Percent Herbicide Tolerance (100% minus percent crop injury)” value ([9]; 210 g ai/ha) was 0.0% and the “Mean Percent Crop Phytotoxicity (% Crop Injury), Mean over rates” value [9, 11] was 79%. The “Mean Percent Crop Phytotoxicity (% Crop Injury)” value ([10]; 35 g ai/ha + 0.25% (v/v) NIS) was 66.67%, the “Mean Percent Herbicide Tolerance (100% minus percent crop injury)” value ([10]; 35 g ai/ha) was 33.3% and the “Mean Percent Crop Phytotoxicity (% Crop Injury)” value ([10]; 70 g ai/ha + 0.25% (v/v) NIS) was 86.67%. For the same compound, the “Mean Percent Herbicide Tolerance (100% minus percent crop injury)” value ([10]; 70 g ai/ha) was 13.3%, the “Mean Percent Crop Phytotoxicity (% Crop Injury)” value ([10]; 140 g ai/ha + 0.25% (v/v) NIS) was 91.67% and the “Mean Percent Herbicide Tolerance (100% minus percent crop injury)” value ([10]; 140 g ai/ha) was 8.3%. For the same compound, the “Mean Percent Crop Phytotoxicity (% Crop Injury)” value ([10]; 210 g ai/ha + 0.25% (v/v) NIS) was 91.67%, the “Mean Percent Herbicide Tolerance (100% minus percent crop injury)” value ([10]; 210 g ai/ha) was 8.3% and the “Mean Percent Crop Phytotoxicity (% Crop Injury), Mean over rates” value [10, 11] was 67.33%.
